The text below walks through data of ChEMBL document CHEMBL1146942, “Abacavir prodrugs: microwave-assisted synthesis and their evaluation of anti-HIV activities” (Bioorg Med Chem Lett, 2006).

Experiment [1] deals with CCRF-CEM. The experiment in a line: Cytotoxicity against CEM cell line. It counts as functional. Particulars: Homo sapiens.
In experiment [2] the test system is Human immunodeficiency virus 1. The experiment in a line: Antiviral activity against HIV1 replication in CEM cell line. In kind it is functional, organism-based. The settings on record: Human immunodeficiency virus 1, CCRF-CEM.
Experiment [3] has as its system CCRF-CEM. The experiment in a line: Selectivity index (CC50/EC50) for inhibition of HIV1 replication in CEM cell line. In kind it is functional.

For the compound `O=[N+]([O-])c1ccccc1/C=N/c1nc(NC2CC2)c2ncn(C3C=CC(CO)C3)c2n1` (stereo not given), the CC50 in the experiment with CCRF-CEM [1] was determined as 13 µM. Also, the EC50 in experiment [2] was determined as 0.48 µM.

For `CN(C)c1ccc(/C=N/c2nc(NC3CC3)c3ncn(C4C=CC(CO)C4)c3n2)cc1` (stereo not given), in the experiment on CCRF-CEM [1], the CC50 is over 100 µM. In experiment [2], this compound showed an EC50 of 0.06 µM.

With `OCC1C=CC(n2cnc3c(NC4CC4)nc(/N=C(\c4ccccc4)c4ccc(Br)cc4)nc32)C1` (stereo not given), half-maximal cytotoxicity in the experiment on CCRF-CEM [1] (CC50) was put at 45 µM. Further, the EC50 in experiment [2] was determined as 3.7 µM.

The compound `COc1ccc(/C=N/c2nc(NC3CC3)c3ncn(C4C=CC(CO)C4)c3n2)cc1` (stereo not given) came in with a CC50 in the experiment on CCRF-CEM [1] of over 100 µM. Besides, a half-maximal response in experiment [2] (EC50) required 0.36 µM.

As to `Cc1ccc2c(c1)/C(=N\c1nc(NC3CC3)c3ncn(C4C=CC(CO)C4)c3n1)C(=O)N2` (stereo not given), it took 78 µM to reach half-maximal cytotoxicity with CCRF-CEM [1] (CC50). Besides, the EC50 in experiment [2] was 2.1 µM.

In the experiment with CCRF-CEM [1], `O=C1Nc2ccc(F)cc2/C1=N\c1nc(NC2CC2)c2ncn(C3C=CC(CO)C3)c2n1` (stereo not given) came in with a CC50 of 56 µM. Moreover, the response in experiment [2] was half-maximal at 6.2 µM (EC50).

With `C/C(=N\c1nc(NC2CC2)c2ncn(C3C=CC(CO)C3)c2n1)c1ccc(O)cc1` (stereo not given), the midpoint of cytotoxicity with CCRF-CEM [1], the CC50, lay at 62 µM. For the same compound, the EC50 in experiment [2] came to 1.9 µM.

Consider `COc1ccc(/C=N/c2nc(NC3CC3)c3ncn(C4C=CC(CO)C4)c3n2)c(O)c1` (stereo not given), for which, in the experiment with CCRF-CEM [1], the CC50 worked out at 100 µM. Moreover, the EC50 in experiment [2] worked out at 1.2 µM.

In the experiment on CCRF-CEM [1], `O=C1Nc2ccccc2/C1=N\c1nc(NC2CC2)c2ncn(C3C=CC(CO)C3)c2n1` (stereo not given) yielded a CC50 of 48 µM. In experiment [2], this compound displayed an EC50 of 5 µM.

As to `O=[N+]([O-])c1ccc(/C=N/c2nc(NC3CC3)c3ncn(C4C=CC(CO)C4)c3n2)cc1` (stereo not given), in the experiment with CCRF-CEM [1], half-maximal cytotoxicity (CC50) was put at 12 µM. Also, the EC50 in experiment [2] was determined as 0.52 µM.

On to `Cc1ccc(/C=N/c2nc(NC3CC3)c3ncn(C4C=CC(CO)C4)c3n2)cc1` (stereo not given), for which the CC50 in the experiment on CCRF-CEM [1] was over 100 µM. For the same compound, the Selectivity index in the experiment on CCRF-CEM [3] is over 2000. The compound further had an EC50 in experiment [2] of 0.05 µM.

For `Nc1nc(NC2CC2)c2ncn([C@H]3C=C[C@@H](CO)C3)c2n1` [ABACAVIR], the CC50 in the experiment with CCRF-CEM [1] amounted to 83 µM. Besides, it took 1.6 µM to reach a half-maximal effect in experiment [2] (EC50).

As usually defined, the CC50 is the concentration giving 50% cytotoxicity. A high value points to lower toxicity to the cells. Broadly, the EC50 is the concentration needed to bring the measured effect to its halfway point. Read a high EC50 as a less potent agent.
